Reference: US6380156B1, “Total synthesis of the amino hip analogue of didemnin A” (The Board of Trustees of the University of Illnois, priority 1996, dated 2002)
Numbered stars: 1 amine (or outer) side, 2 acyl side, 3 side chain; on linkers, the order of the positions; unused ones are H or OH. Bridge positions count the residues as written; N and C are the ends. Square brackets hold non-standard residues; d marks the D form. Peptide text beside a SMILES is read from it. * marks the point of attachment. X1 = CC[C@H](C)[C@@H](N[*:1])[C@@H](O)CC(=O)[*:2]; X2 = CC(C)[C@H](N[*:1])C(=O)[C@H](C)C(=O)[*:2]; NMeY = CN[C@@H](Cc1ccc(O)cc1)C(=O)O; dNMeL = CN[C@H](CC(C)C)C(=O)O; Cbz = O=C(OCc1ccccc1)*

What was measured:
HSV = assay: Antiviral activity, HSV/CV-1; format: cell-based; parameters: key: +++ complete inhibition; ++ strong inhibition; + moderate inhibition; − no inhibition
CV-1 = assay: Cytotoxicity in the HSV/CV-1 antiviral test; conditions: scale 0-least toxic to 16 (toxic)
[1] = molecular target: elongation factor 1α (EF-1α) (Homo sapiens, UniProt P68104); conditions: GTP-dependent; cited from earlier work
Chain of elongation factor 1α (EF-1α) (P68104 whole entry): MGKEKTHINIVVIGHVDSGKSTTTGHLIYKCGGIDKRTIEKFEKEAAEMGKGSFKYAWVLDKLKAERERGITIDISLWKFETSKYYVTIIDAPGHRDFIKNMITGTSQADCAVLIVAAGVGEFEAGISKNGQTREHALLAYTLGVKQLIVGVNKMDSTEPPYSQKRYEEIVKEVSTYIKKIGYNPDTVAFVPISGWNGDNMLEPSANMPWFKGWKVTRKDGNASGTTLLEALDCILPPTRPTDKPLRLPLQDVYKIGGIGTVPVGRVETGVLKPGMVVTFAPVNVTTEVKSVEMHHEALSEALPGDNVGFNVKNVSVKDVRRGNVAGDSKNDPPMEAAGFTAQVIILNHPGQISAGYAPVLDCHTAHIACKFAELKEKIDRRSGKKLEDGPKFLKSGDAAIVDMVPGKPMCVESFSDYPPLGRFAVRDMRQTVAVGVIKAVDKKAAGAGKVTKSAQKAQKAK

DNA and RNA viruses = conditions: cited from earlier work
[2] = in vitro; cited from earlier work
Nb2 node lymphoma cells = conditions: cited from earlier work

For `CC[C@H](C)[C@H]1NC(=O)[C@@H](NC(=O)[C@@H](CC(C)C)N(C)C(=O)OCc2ccccc2)[C@@H](C)OC(=O)[C@H](Cc2ccc(OC)cc2)N(C)C(=O)[C@@H]2CCCN2C(=O)[C@H](CC(C)C)NC(=O)[C@@H](C)C(=O)[C@H](C(C)C)NC(=O)C[C@@H]1O` [Cbz-[Aip^3]-Didemnin A] (Cbz-[dNMeL]T[X1][X2]LP[NMeY](Me); ester 2-C), the “HSV/CV-1 Activity (antiviral)” value (HSV; 10 ng/mL) was “−”, the “HSV/CV-1 Activity (antiviral)” value (HSV; 20 ng/mL) was “+” and the “HSV/CV-1 Activity (antiviral)” value (HSV; 50 ng/mL) was “+”. The “HSV/CV-1 Activity (antiviral)” value (HSV; 100 ng/mL) was “+”, the “HSV/CV-1 Cytotoxicity” value (CV-1; 10 ng/mL) was 0 and the “HSV/CV-1 Cytotoxicity” value (CV-1; 20 ng/mL) was 0. For the same compound, the “HSV/CV-1 Cytotoxicity” value (CV-1; 50 ng/mL) was 8 and the “HSV/CV-1 Cytotoxicity” value (CV-1; 100 ng/mL) was 10.

In the case of Didemnin A [Didemnin A (1)], the “HSV/CV-1 Activity (antiviral)” value (HSV; 10 ng/mL) is reported as “−”, the “HSV/CV-1 Activity (antiviral)” value (HSV; 20 ng/mL) is reported as “+” and the “HSV/CV-1 Activity (antiviral)” value (HSV; 50 ng/mL) is reported as “+”. The “HSV/CV-1 Activity (antiviral)” value (HSV; 100 ng/mL) was “+”, the “binding to elongation factor 1α (EF-1α)” value [1] was “binds elongation factor 1α (EF-1α) in a GTP-dependent manner” and the “HSV/CV-1 Cytotoxicity” value (CV-1; 10 ng/mL) was 0. For the same compound, the “HSV/CV-1 Cytotoxicity” value (CV-1; 20 ng/mL) was 0, the “HSV/CV-1 Cytotoxicity” value (CV-1; 50 ng/mL) was 0 and the “HSV/CV-1 Cytotoxicity” value (CV-1; 100 ng/mL) was 0. For the same compound, the “antiviral activity against DNA and RNA viruses” value (DNA and RNA viruses) was “exhibit antiviral activity”.

For Didemnin B, the “cytotoxicity relative to didemnin A” value [2] is listed as “approximately twenty times more cytotoxic than didemnin A”, the “binding to a site on Nb2 node lymphoma cells” value (Nb2 node lymphoma cells) is listed as “binds to a site on Nb2 node lymphoma cells” and the “antiviral activity against DNA and RNA viruses” value (DNA and RNA viruses) is listed as “exhibit antiviral activity”.
